Read-outs that look alike come from different tables or passages of the source.
Tests used:
NDM-1 [1] = target: T1, NDM-1 (Klebsiella pneumoniae, UniProt C7C422); parameters: method as in PMID 32937203; settings: cited from earlier work; for Inhibition of NDM-1 (dash in Ki column), corresponding hydrazone-like compound: in parentheses, 100 μM inhibitor; for Ki: Schiff base analogs, read-out: Ki Value NDM-1, hydrazone-like compound (converted)
VIM-2 [2] = target: T2, VIM-2 (Escherichia coli, UniProt Q5U7L7); settings: cited from earlier work; for Ki: Schiff base analogs, read-out: Ki Value VIM-2, hydrazone-like compound (converted); for Inhibition of VIM-2 (dash in Ki column), corresponding hydrazone-like compound: in parentheses, 100 μM inhibitor
T2 construct: made in house; host or cells: E. coli BL21(DE3) derivative, pET-9a

IMP-1 [3] = target: T3, IMP-1 (Serratia marcescens, UniProt P52699); parameters: method as in PMID 32937203; settings: cited from earlier work; for Ki: value in parentheses, read-out: Ki Value IMP-1, corresponding hydrazone-like compound (converted); for Inhibition of IMP-1 (dash in Ki column), corresponding hydrazone-like compound: in parentheses, 100 μM inhibitor
T3 construct: made in house; host or cells: E. coli BL21(DE3) derivative, pET-9a
T3 sequence (P52699 19-246 limits assumed): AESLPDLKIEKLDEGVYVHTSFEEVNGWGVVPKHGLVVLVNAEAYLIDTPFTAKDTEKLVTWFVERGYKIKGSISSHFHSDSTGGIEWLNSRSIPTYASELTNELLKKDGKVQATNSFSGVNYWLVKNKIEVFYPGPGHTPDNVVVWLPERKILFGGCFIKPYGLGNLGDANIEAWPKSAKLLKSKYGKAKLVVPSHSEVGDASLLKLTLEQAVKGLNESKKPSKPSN

VIM-2 [4] = target: T2, VIM-2; experiment: MBL inhibition, reporter substrate method, VIM-2; assay type: biochemical
Procedure: (§1) Compounds were prepared in DMSO at a final concentration of 50 mM prior to dilution in the assay buffer. The reaction rate was measured as the variation of absorbance observed upon substrate hydrolysis in a UV-Vis spectrophotometer or microplate reader at a wavelength of 300 nm (imipenem, meropenem), 260 nm (cefotaxime), or 482 nm (nitrocefin) and in the presence of a purified MBL enzyme (such as VIM-1, VIM-2, VIM-4, NDM-1, and IMP-1, at a final concentration ranging from 1 to 70 nM).
(§2) These enzymes were overproduced in derivatives of E. coli BL21(DE3) carrying a pET-9 a (IMP-1, VIM-1, VIM-2, and VIM-4) or pET-15 b (NDM-1) vector into which the metallo-β-lactamase-encoding open reading frame was cloned. Bacterial strains were grown in the auto-inducing medium, ZYP-5052, supplemented with 50 μg/mL kanamycin for 24 h at 37 °C [38]. IMP-1, VIM-1, VIM-2, and VIM-4 were purified by ion-exchange and gel filtration chromatography using an AKTA Purifier platform (GE Healthcare, Uppsala, Sweden) as previously described. NDM-1 (residues 37-270) was produced as an amino-terminal 6 xHis-tag fusion protein and was purified using affinity chromatography. After growth for 26 h at 25 °C, bacterial cells were harvested by centrifugation (10,000× g, 30 min, 4 °C), resuspended in 10 mM HEPES buffer (pH 7.5) containing 0.15 M NaCl (buffer A) in one-fifth of the original culture volume, and lysed by sonication. Cellular debris was removed by centrifugation (12,000× g, 40 min, 4 °C). The clarified sample was loaded on a HisTrap HP column (bed volume, 5 mL; GE Healthcare), followed by a wash step (25 mL) with buffer A containing 20 mM imidazole. Proteins were eluted using buffer A containing 350 mM imidazole. The resulting protein sample was desalted (HiPrep 26/10 Desalting column, GE Healthcare) using 20 mM triethanolamine (pH 7.2) supplemented with 50 μM ZnSO4 and concentrated using an Amicon Ultra-15 (MW cut-off, 10 kDa; Millipore, Burlington, MA, USA). The concentrated sample was loaded on a Superdex 75 prep grade column (XK16/100 column; bed volume, 140 mL; GE Healthcare) and the proteins eluted with buffer A containing 50 μM ZnSO4. The active fractions were pooled and stored at −20 °C. The purity of the protein preparations was estimated >95% by SDS-PAGE analysis. The authenticity of the enzyme preparations was confirmed by electron spray ionization mass spectrometry, as previously described.
(§3) The inhibition constants (Ki) were determined on the basis of a model of competitive inhibition by analyzing the dependence of the ratio v0/vi (v0, hydrolysis velocity in the absence of inhibitor; vi, hydrolysis velocity in the presence of inhibitor) as a function of [I] as already described. The slope of the plot of v0/vi vs. [I], which corresponds to Km^S/(Km^S + [S])Ki (where Km^S is the Km value of the reporter substrate and [S] its concentration in the reaction mixture) and allowed the calculation of the Ki value. Alternatively, a Dixon plot analysis was carried out by measuring the initial hydrolysis rates in the presence of variable concentrations of inhibitor and substrate. This allowed Ki values to be determined and supported the hypothesis that the various compounds behaved as competitive inhibitors of the various tested enzymes. The assays were performed in triplicate.

NDM-1 [5] = target: T1, NDM-1; experiment: MBL inhibition, reporter substrate method, NDM-1; assay type: biochemical; settings: value in parentheses; analogs of compounds 5 and 6 (this work); read-out: Ki Value NDM-1, corresponding hydrazone-like compound
Procedure: as §1, §2, §3

IMP-1 [6] = target: T3, IMP-1; experiment: MBL inhibition, reporter substrate method, IMP-1; assay type: biochemical; settings: value in parentheses; analogs of compounds 5 and 6 (this work); read-out: Ki Value IMP-1, corresponding hydrazone-like compound
Procedure: as §1, §2, §3

T1 sequence (C7C422 37-270 limits assumed): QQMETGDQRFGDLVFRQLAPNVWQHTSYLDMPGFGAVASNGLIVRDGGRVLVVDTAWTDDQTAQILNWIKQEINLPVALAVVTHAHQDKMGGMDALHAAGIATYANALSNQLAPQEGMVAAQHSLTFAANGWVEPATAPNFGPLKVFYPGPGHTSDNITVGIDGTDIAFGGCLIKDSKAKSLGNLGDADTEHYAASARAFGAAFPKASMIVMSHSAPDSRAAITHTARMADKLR

Cc1ccccc1-c1n[nH]c(=S)n1N=Cc1ccccc1C(=O)O [hydrazone-like analog of 2]
Inhibition of NDM-1 (dash in Ki column), corresponding hydrazone-like compound (NDM-1 [1]): - (-) (<40% of inhibition in the presence of 100 μM inhibitor) | Ki (VIM-2 [2]): 3 µM | Ki (IMP-1 [3]): 58 µM

O=C(O)c1ccccc1C=Nn1c(-c2cccc(-c3ccccc3)c2)n[nH]c1=S [hydrazone-like analog of 3]
Ki (NDM-1 [1]): 4.2 µM | Ki (VIM-2 [2]): 0.2 µM | Ki (IMP-1 [3]): 18 µM

O=C(O)c1ccccc1C=Nn1c(-c2ccc3ccccc3c2)n[nH]c1=S [hydrazone-like analog of 4]
Ki (NDM-1 [1]): 2.3 µM | Ki (VIM-2 [2]): 0.7 µM | Ki (IMP-1 [3]): 6.9 µM

O=C(O)c1ccccc1C=Nn1c(-c2cc3ccccc3[nH]2)n[nH]c1=S [hydrazone-like analog of 5]
inhibition at 100 µM (VIM-2 [4]; read-out: Inhibition of VIM-2 (dash in Ki column), corresponding hydrazone-like compound): < 40% | Ki (NDM-1 [5]): 9.4 µM | Ki (IMP-1 [6]): 55 µM

O=C(O)c1ccccc1C=Nn1c(Cc2ccccc2)n[nH]c1=S [hydrazone-like analog of 6]
Ki (VIM-2 [4]; value in parentheses, analogs of compounds 5 and 6 (this work), read-out: Ki Value VIM-2, corresponding hydrazone-like compound (converted)): 3.2 µM | Ki (NDM-1 [5]): 42 µM | Ki (IMP-1 [6]): 28 µM

O=C(O)c1ccccc1C=Nn1c(Cc2ccc3ccccc3c2)n[nH]c1=S [hydrazone-like analog of 7]
Ki (NDM-1 [1]): 1.6 µM | Ki (VIM-2 [2]): 2.4 µM | Ki (IMP-1 [3]): 34 µM

O=C(O)c1ccccc1C=Nn1c(CCc2ccccc2)n[nH]c1=S [hydrazone-like analog of 8]
Inhibition of NDM-1 (dash in Ki column), corresponding hydrazone-like compound (NDM-1 [1]): - (-) (<40% of inhibition in the presence of 100 μM inhibitor) | Ki (VIM-2 [2]): 7 µM | Inhibition of IMP-1 (dash in Ki column), corresponding hydrazone-like compound (IMP-1 [3]): - (-) (<40% of inhibition in the presence of 100 μM inhibitor)

O=[N+]([O-])c1ccccc1C=Nn1c(CCc2ccccc2)n[nH]c1=S [hydrazone-like analog of 9]
Inhibition of NDM-1 (dash in Ki column), corresponding hydrazone-like compound (NDM-1 [1]): - (-) (<40% of inhibition in the presence of 100 μM inhibitor) | Inhibition of VIM-2 (dash in Ki column), corresponding hydrazone-like compound (VIM-2 [2]): - (-) (<40% of inhibition in the presence of 100 μM inhibitor) | Inhibition of IMP-1 (dash in Ki column), corresponding hydrazone-like compound (IMP-1 [3]): - (-) (<40% of inhibition in the presence of 100 μM inhibitor)

O=C(O)c1ccc(C=Nn2c(CCc3ccccc3)n[nH]c2=S)cc1 [hydrazone-like analog of 10]
Inhibition of NDM-1 (dash in Ki column), corresponding hydrazone-like compound (NDM-1 [1]): - (-) (<40% of inhibition in the presence of 100 μM inhibitor) | Inhibition of VIM-2 (dash in Ki column), corresponding hydrazone-like compound (VIM-2 [2]): - (-) (<40% of inhibition in the presence of 100 μM inhibitor) | Ki (IMP-1 [3]): 11 µM

O=C(O)c1ccccc1C=Nn1c(CC(c2ccccc2)c2ccccc2)n[nH]c1=S [hydrazone-like analog of 11]
Ki (NDM-1 [1]): 2.7 µM | Ki (VIM-2 [2]): 25 µM | Inhibition of IMP-1 (dash in Ki column), corresponding hydrazone-like compound (IMP-1 [3]): - (-) (<40% of inhibition in the presence of 100 μM inhibitor)

O=C(O)c1ccccc1C=Nn1c(COc2ccc3ccccc3c2)n[nH]c1=S [hydrazone-like analog of 12]
Ki (NDM-1 [1]): 2.4 µM | Ki (VIM-2 [2]): 2 µM | Inhibition of IMP-1 (dash in Ki column), corresponding hydrazone-like compound (IMP-1 [3]): - (-) (<40% of inhibition in the presence of 100 μM inhibitor)

Source: publication PMC7465886, “4-(N-Alkyl- and -Acyl-amino)-1,2,4-triazole-3-thione Analogs as Metallo-β-Lactamase Inhibitors: Impact of 4-Linker on Potency and Spectrum of Inhibition” (Biomolecules, 2020)
